Holding throughout (experiment): MTT cell proliferation assay
Common to all, as to format: cell-based

In one assay the test system is MS751 cells. As to conditions: Homo sapiens, MS751, MS751 cells, approximately 64-72 hours incubation. The essentials: (§1)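 5,000-10,000 cells/well, overnight attach; 8 conc., 1 nM–30 μM; MTT ~4 h; formazan solubilized, OD 490 nm; % inhibition = (1−(ODo/OD))×100 vs neg. control; mostly duplicate, mean±SE.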
In a further assay the test system is Z138 cells. As to conditions: Homo sapiens, Z-138, Z138 cells, approximately 64-72 hours incubation. The essentials: as §1
The next assay concerns 3T3 cells. As to conditions: Mus musculus, NIH3T3, approximately 64-72 hours incubation. The essentials:
as §1

The mark [1] stands for this setting: read-out: MTT Assay IC50 MS-751.
Setting [2] is: read-out: MTT Assay IC50, MS-751.
Where [3] appears, read: read-out: MTT Assay IC50, Z-138.

Read-outs that look alike come from different tables or passages of the source.

On to `O=C(/C=C/c1cccnc1)NCc1cc2cc(-c3ccc(C(=O)N4CCOCC4)cc3)cc(Cl)c2o1` [Compound 538, (E)-N-((7-chloro-5-(4-(morpholine-4-carbonyl)phenyl)benzofuran-2-yl)methyl)-3-(pyridin-3-yl)acrylamide], for which the half-maximal inhibitory concentration (IC50) with MS751 cells (setting [1]), in the assay with Z138 cells (read-out: MTT Assay IC50 Z-138) and with 3T3 cells (read-out: MTT Assay IC50 3T3) was 0.1 to 5 µM in each case.

With `Nc1ccc(/C=C/C(=O)NCc2cc3cc(-c4ccc(C(=O)N5CCC(F)(F)CC5)cc4)cc(-c4cccc(F)c4)c3o2)cn1` [Compound 726, (E)-3-(6-aminopyridin-3-yl)-N-((5-(4-(4,4-difluoropiperidine-1-carbonyl)phenyl)-7-(3-fluorophenyl)benzofuran-2-yl)methyl)acrylamide], the half-maximal inhibitory concentration (IC50) with MS751 cells (setting [2]) is less than 0.1 µM; with Z138 cells (setting [3]), less than 0.1 µM; with 3T3 cells (read-out: MTT Assay IC50, 3T3), 0.1 to 5 µM.

Take `O=C(/C=C/c1cccnc1)NCc1cc2cc(-c3ccc(C(=O)N4CCC(F)(F)CC4)cc3)cc(-c3ccc(F)cc3)c2o1` [Compound 729]: the IC50 in the assay on MS751 cells (setting [2]) is less than 0.1 µM; in the assay with Z138 cells (setting [3]), less than 0.1 µM; with 3T3 cells (read-out: MTT Assay IC50, 3T3), less than 0.1 µM.

`Nc1ccc(/C=C/C(=O)NCc2cc3cc(-c4ccc(C(=S)N5CCC(F)(F)CC5)cn4)cc(-c4ccc(F)cc4F)c3o2)cn1` [Compound 708, (E)-3-(6-aminopyridin-3-yl)-N-((7-(2,4-difluorophenyl)-5-(5-(4,4-difluoropiperidine-1-carbonothioyl)pyridin-2-yl)benzofuran-2-yl)methyl)acrylamide]: the IC50 in the assay with MS751 cells (setting [2]) was less than 0.1 µM; in the assay on Z138 cells (setting [3]), less than 0.1 µM; with 3T3 cells (read-out: MTT Assay IC50, 3T3), 0.1 to 5 µM.

Take `Nc1ccc(/C=C/C(=O)NCc2cc3cc(-c4ccc(C(=O)N5CC[C@H](F)C5)cc4)cc(Cl)c3o2)cn1` [Compound 528, (S,E)-3-(6-aminopyridin-3-yl)-N-((7-chloro-5-(4-(3-fluoropyrrolidine-1-carbonyl)phenyl)benzofuran-2-yl)methyl)acrylamide]: the IC50 with MS751 cells (setting [1]), in the assay with Z138 cells (read-out: MTT Assay IC50 Z-138) and in the assay on 3T3 cells (read-out: MTT Assay IC50 3T3) was more than 10 µM each time.

On to `Cc1noc(C)c1C(O)c1ccc(-c2cc(Cl)c3oc(CNC(=O)/C=C/c4ccc(N)nc4)cc3c2)s1` (stereo not drawn) [Compound 578, (E)-3-(6-aminopyridin-3-yl)-N-((7-chloro-5-(5-((3,5-dimethylisoxazol-4-yl)(hydroxy)methyl)thiophen-2-yl)benzofuran-2-yl)methyl)acrylamide], for which the values for the IC50 with MS751 cells (setting [1]), in the assay on Z138 cells (read-out: MTT Assay IC50 Z-138) and in the assay with 3T3 cells (read-out: MTT Assay IC50 3T3) were 5 to 10 µM, 5 to 10 µM and more than 10 µM, respectively.

For `Nc1ccc(/C=C/C(=O)NCc2cc3cccc(-c4ccc(C(=O)N5CCOCC5)cc4)c3o2)cn1` [Compound 559, (E)-3-(6-aminopyridin-3-yl)-N-((7-(4-(morpholine-4-carbonyl)phenyl)benzofuran-2-yl)methyl)acrylamide], the half-inhibitory concentration (IC50) in the assay with MS751 cells (setting [1]) was less than 0.1 µM; in the assay on Z138 cells (read-out: MTT Assay IC50 Z-138) it was less than 0.1 µM; with 3T3 cells (read-out: MTT Assay IC50 3T3), 0.1 to 5 µM.

In the case of `Nc1ccc(/C=C/C(=O)NCc2cc3cc(-c4ccc(C(=O)N5CCOCC5)c(F)c4)cc(Cl)c3o2)cn1` [Compound 549, (E)-3-(6-aminopyridin-3-yl)-N-((7-chloro-5-(3-fluoro-4-(morpholine-4-carbonyl)phenyl)benzofuran-2-yl)methyl)acrylamide], the half-maximal inhibitory concentration (IC50) with MS751 cells (setting [1]) is 0.1 to 5 µM; with Z138 cells (read-out: MTT Assay IC50 Z-138), 0.1 to 5 µM; in the assay with 3T3 cells (read-out: MTT Assay IC50 3T3) it was more than 10 µM.

As to `Nc1ccc(/C=C/C(=O)NCc2cc3cc(-c4ccc(C(=O)N5CCC(F)(F)CC5)cc4)cc(-c4ccc(F)cc4F)c3o2)cn1` [Compound 736, (E)-3-(6-aminopyridin-3-yl)-N-((7-(2,4-difluorophenyl)-5-(4-(4,4-difluoropiperidine-1-carbonyl)phenyl)benzofuran-2-yl)methyl)acrylamide], the concentration for half-maximal inhibition (IC50) in the assay with MS751 cells (setting [2]) was less than 0.1 µM; in the assay on Z138 cells (setting [3]), less than 0.1 µM; with 3T3 cells (read-out: MTT Assay IC50, 3T3), 0.1 to 5 µM.

For `Nc1ccc(/C=C/C(=O)NCc2coc3c(Cl)cc(-c4ccc(C(=O)N5CCC(F)(F)CC5)cn4)cc23)cn1` [Compound 766, (E)-3-(6-aminopyridin-3-yl)-N-((7-chloro-5-(5-(4,4-difluoropiperidine-1-carbonyl)pyridin-2-yl)benzofuran-3-yl)methyl)acrylamide], the IC50 is 0.1 to 5 µM in the assay with MS751 cells (setting [2]); 0.1 to 5 µM in the assay with Z138 cells (setting [3]); 5 to 10 µM with 3T3 cells (read-out: MTT Assay IC50, 3T3).

With `Nc1ccc(/C=C/C(=O)NCc2cc3cc(-c4ccc(Oc5ccc(F)cc5)cc4)cc(-c4ccc(F)cc4)c3o2)cn1` [Compound 701, (E)-3-(6-aminopyridin-3-yl)-N-((5-(4-(4-fluorophenoxy)phenyl)-7-(4-fluorophenyl)benzofuran-2-yl)methyl)acrylamide], the IC50 with MS751 cells (setting [2]) was 0.1 to 5 µM; in the assay with Z138 cells (setting [3]) it was 0.1 to 5 µM; in the assay with 3T3 cells (read-out: MTT Assay IC50, 3T3) it was more than 10 µM.

Consider `Nc1ccc(/C=C/C(=O)NCc2cc3cc(-c4ccc(C(=S)N5CCC(F)(F)CC5)cc4F)cc(-c4ccc(F)cc4)c3o2)cn1` [Compound 758, (E)-3-(6-aminopyridin-3-yl)-N-((5-(4-(4,4-difluoropiperidine-1-carbonothioyl)-2-fluorophenyl)-7-(4-fluorophenyl)benzofuran-2-yl)methyl)acrylamide], for which the IC50 in the assay on MS751 cells (setting [2]) is less than 0.1 µM; in the assay on Z138 cells (setting [3]), less than 0.1 µM; in the assay with 3T3 cells (read-out: MTT Assay IC50, 3T3) it was more than 10 µM.

Consider `Nc1ccc(/C=C/C(=O)NCc2cc3cc(-c4ccc(C(=O)N5CC6(CCO6)C5)cn4)cc(C(F)(F)F)c3o2)cn1` [Compound 634, (E)-N-((5-(5-(1-oxa-6-azaspiro[3.3]heptane-6-carbonyl)pyridin-2-yl)-7-(trifluoromethyl)benzofuran-2-yl)methyl)-3-(6-aminopyridin-3-yl)acrylamide], for which the IC50 is 0.1 to 5 µM in the assay on MS751 cells (setting [1]), 0.1 to 5 µM in the assay on Z138 cells (read-out: MTT Assay IC50 Z-138) and more than 10 µM with 3T3 cells (read-out: MTT Assay IC50 3T3).

With `Nc1ccc(/C=C/C(=O)NCc2cc3cc(-c4ccc(C(=O)N5CCC(O)(C(F)(F)F)CC5)cc4)cc(C(F)(F)F)c3o2)cn1` [Compound 609, (E)-3-(6-aminopyridin-3-yl)-N-((5-(4-(4-hydroxy-4-(trifluoromethyl)piperidine-1-carbonyl)phenyl)-7-(trifluoromethyl)benzofuran-2-yl)methyl)acrylamide], the results for the IC50 with MS751 cells (setting [1]), in the assay with Z138 cells (read-out: MTT Assay IC50 Z-138) and in the assay with 3T3 cells (read-out: MTT Assay IC50 3T3) were 0.1 to 5 µM, 0.1 to 5 µM and more than 10 µM, respectively.

Regarding `Nc1ccc(/C=C/C(=O)NCc2cc3c(-c4ccc(C(=O)N5CCC(F)(F)CC5)cn4)cc(C(F)(F)F)cc3o2)cn1` [Compound 761, (E)-3-(6-aminopyridin-3-yl)-N-((4-(5-(4,4-difluoropiperidine-1-carbonyl)pyridin-2-yl)-6-(trifluoromethyl)benzofuran-2-yl)methyl)acrylamide], the IC50 is more than 10 µM with MS751 cells (setting [2]); more than 10 µM with Z138 cells (setting [3]); more than 10 µM in the assay with 3T3 cells (read-out: MTT Assay IC50, 3T3).

In the case of `Nc1ccc(/C=C/C(=O)NCc2cc3cc(-c4ccc(C(=O)N5CCC(F)(F)CC5)cc4)cc(-c4ccc(Cl)cc4)c3o2)cn1` [Compound 742, (E)-3-(6-aminopyridin-3-yl)-N-((7-(4-chlorophenyl)-5-(4-(4,4-difluoropiperidine-1-carbonyl)phenyl)benzofuran-2-yl)methyl)acrylamide], the half-inhibitory concentration (IC50) in the assay on MS751 cells (setting [2]) was 0.1 to 5 µM; in the assay on Z138 cells (setting [3]), 0.1 to 5 µM; in the assay on 3T3 cells (read-out: MTT Assay IC50, 3T3), more than 10 µM.

Take `Nc1ccc(/C=C/C(=O)NCc2cc3cc(-c4ccc(C(=O)N5CCC[C@@H]5C(F)(F)F)cn4)cc(C(F)(F)F)c3o2)cn1` [Compound 624, (R,E)-3-(6-aminopyridin-3-yl)-N-((7-(trifluoromethyl)-5-(5-(2-(trifluoromethyl)pyrrolidine-1-carbonyl)pyridin-2-yl)benzofuran-2-yl)methyl)acrylamide]: the half-maximal inhibitory concentration (IC50) in the assay on MS751 cells (setting [1]) is 0.1 to 5 µM; with Z138 cells (read-out: MTT Assay IC50 Z-138) it was 0.1 to 5 µM; in the assay on 3T3 cells (read-out: MTT Assay IC50 3T3), more than 10 µM.

`C[C@H]1COCCN1C(=O)c1ccc(-c2cc(Cl)c3oc(CNC(=O)/C=C/c4ccc(N)nc4)cc3c2)cc1` [Compound 515, (S,E)-3-(6-aminopyridin-3-yl)-N-((7-chloro-5-(4-(3-methylmorpholine-4-carbonyl)phenyl)benzofuran-2-yl)methyl)acrylamide]: the figures for the half-inhibitory concentration (IC50) with MS751 cells (setting [1]), in the assay on Z138 cells (read-out: MTT Assay IC50 Z-138) and in the assay with 3T3 cells (read-out: MTT Assay IC50 3T3) were 0.1 to 5 µM, 0.1 to 5 µM and more than 10 µM, respectively.

As for `CN1CCN(C(=O)c2ccc(-c3cc(Cl)c4oc(CNC(=O)/C=C/c5ccc(N)nc5)cc4c3)nc2)CC1` [Compound 584, (E)-3-(6-aminopyridin-3-yl)-N-((7-chloro-5-(5-(4-methylpiperazine-1-carbonyl)pyridin-2-yl)benzofuran-2-yl)methyl)acrylamide], the IC50 was less than 0.1 µM with MS751 cells (setting [1]), less than 0.1 µM with Z138 cells (read-out: MTT Assay IC50 Z-138) and 5 to 10 µM in the assay with 3T3 cells (read-out: MTT Assay IC50 3T3).

As to `COc1cc(-c2ncc(C(=O)N3CCNCC3)cn2)cc2cc(CNC(=O)/C=C/c3ccc(N)nc3)oc12` [Compound 639, (E)-3-(6-aminopyridin-3-yl)-N-((7-methoxy-5-(5-(piperazine-1-carbonyl)pyrimidin-2-yl)benzofuran-2-yl)methyl)acrylamide], the IC50 in the assay with MS751 cells (setting [1]) is 0.1 to 5 µM; with Z138 cells (read-out: MTT Assay IC50 Z-138), 0.1 to 5 µM; in the assay with 3T3 cells (read-out: MTT Assay IC50 3T3), more than 10 µM.

Take `COc1cc(-c2ncc(C(=O)N3CCOCC3)cn2)cc2cc(CNC(=O)/C=C/c3ccc(N)nc3)oc12` [Compound 638, (E)-3-(6-aminopyridin-3-yl)-N-((7-methoxy-5-(5-(morpholine-4-carbonyl)pyrimidin-2-yl)benzofuran-2-yl)methyl)acrylamide]: the IC50 was 0.1 to 5 µM in the assay on MS751 cells (setting [1]), less than 0.1 µM in the assay with Z138 cells (read-out: MTT Assay IC50 Z-138) and more than 10 µM with 3T3 cells (read-out: MTT Assay IC50 3T3).

The values above are taken from patent US12331040B2 (Karyopharm Therapeutics Inc., priority 2013, dated 2025).
